What was measured:
[1] = refractive index (Na D-line) (dimensionless); xn = mol fraction of the nth substance listed; conditions: 101 kPa, Liquid, Standard Abbe refractometry
[2] = xn = mol fraction of the nth substance listed; conditions: 101 kPa, Liquid, Vibrating tube method

C1CCC(NC2CCCCC2)CC1 [N-cyclohexylcyclohexanamine] + CC(C)(C)O
Conditions | mass density, 303.15 K [kg/m3] | mass density, 308.15 K [kg/m3] | mass density, 313.15 K [kg/m3] | mass density, 318.15 K [kg/m3] | mass density, 323.15 K [kg/m3] | refractive index, 303.15 K | refractive index, 308.15 K | refractive index, 313.15 K | refractive index, 318.15 K | refractive index, 323.15 K
[1], x2 = 0 | – | – | – | – | – | 1.47978 | 1.47761 | 1.47562 | 1.47347 | 1.47134
[1], x2 = 0.1 | – | – | – | – | – | 1.47584 | 1.47362 | 1.47142 | 1.46916 | 1.467
[1], x2 = 0.199 | – | – | – | – | – | 1.47107 | 1.46875 | 1.46639 | 1.4641 | 1.46188
[1], x2 = 0.289 | – | – | – | – | – | 1.46609 | 1.46373 | 1.46133 | 1.45899 | 1.45674
[1], x2 = 0.4 | – | – | – | – | – | 1.45896 | 1.4565 | 1.45403 | 1.45163 | 1.44932
[1], x2 = 0.485 | – | – | – | – | – | 1.45238 | 1.44994 | 1.44742 | 1.44498 | 1.44272
[1], x2 = 0.6 | – | – | – | – | – | 1.4423 | 1.43973 | 1.43717 | 1.43461 | 1.43215
[1], x2 = 0.698 | – | – | – | – | – | 1.43185 | 1.42927 | 1.42663 | 1.42401 | 1.42155
[1], x2 = 0.801 | – | – | – | – | – | 1.41877 | 1.41609 | 1.41336 | 1.41073 | 1.4081
[1], x2 = 0.849 | – | – | – | – | – | 1.41128 | 1.40862 | 1.40587 | 1.40316 | 1.40048
[1], x2 = 0.9 | – | – | – | – | – | 1.40275 | 1.40004 | 1.39727 | 1.39449 | 1.39193
[2], x2 = 0 | 904.144 | 900.372 | 896.608 | 892.847 | 889.089 | – | – | – | – | –
[2], x2 = 0.1 | 899.362 | 895.452 | 891.533 | 887.611 | 883.684 | – | – | – | – | –
[2], x2 = 0.199 | 893.462 | 889.433 | 885.384 | 881.326 | 877.25 | – | – | – | – | –
[2], x2 = 0.289 | 887.197 | 883.071 | 878.917 | 874.742 | 870.544 | – | – | – | – | –
[2], x2 = 0.4 | 878.023 | 873.772 | 869.49 | 865.171 | 860.821 | – | – | – | – | –
[2], x2 = 0.485 | 869.715 | 865.366 | 860.973 | 856.539 | 852.063 | – | – | – | – | –
[2], x2 = 0.6 | 856.549 | 852.061 | 847.522 | 842.928 | 838.281 | – | – | – | – | –
[2], x2 = 0.698 | 843.066 | 838.44 | 833.751 | 829.003 | 824.196 | – | – | – | – | –
[2], x2 = 0.801 | 825.644 | 820.845 | 815.974 | 811.036 | 806.029 | – | – | – | – | –
[2], x2 = 0.849 | 815.948 | 811.061 | 806.1 | 801.065 | 795.955 | – | – | – | – | –
[2], x2 = 0.9 | 804.266 | 799.276 | 794.206 | 789.061 | 783.837 | – | – | – | – | –
